The source of these data is paper PMC5218480 (PLoS ONE, 2017).

Molecules are shown by their SMILES.

The test system of this test is MV-4-11 cells. The test can be described thus: Gene expression microarray analysis (Affymetrix PrimeView) and GSEA. Also on record: RFU PODN (11730768_x_at) / Fold change /veh PODN (11730768_x_at) / RFU LINC00158 (11744669_a_at) / Fold change /veh LINC00158 (11744669_a_at) / RFU DUSP10 (11751237_a_at) / Fold change /veh DUSP10 (11751237_a_at) / RFU ID3 (11757404_x_at) / Fold change /veh ID3 (11757404_x_at) / RFU PLEKHG5 (11737974_s_at) / Fold change /veh PLEKHG5 (11737974_s_at) / RFU LRRC4B (11730491_at) / Fold change /veh LRRC4B (11730491_at) / RFU GIMAP4 (11747438_a_at) / Fold change /veh GIMAP4 (11747438_a_at) / RFU KRT8 (11758183_x_at) / Fold change /veh KRT8 (11758183_x_at) / RFU CNN1 (11734310_a_at) / Fold change /veh CNN1 (11734310_a_at) / RFU VPS37D (11726825_at) / Fold change /veh VPS37D (11726825_at) / RFU C10orf10 (11716522_x_at) / Fold change /veh C10orf10 (11716522_x_at) / RFU KIR2DL2 /// KIR2DL4 /// KIR2DL5A /// KIR2DL5B /// KIR2DS1 /// KIR2DS2 /// KIR2DS3 /// KIR2DS4 /// KIR3DL3 /// KIR3DL3 /// KIR3DS1 (11738374_at) / Fold change /veh KIR2DL2 /// KIR2DL4 /// KIR2DL5A /// KIR2DL5B /// KIR2DS1 /// KIR2DS2 /// KIR2DS3 /// KIR2DS4 /// KIR3DL3 /// KIR3DL3 /// KIR3DS1 (11738374_at) / RFU C1QL1 (11718748_at) / Fold change /veh C1QL1 (11718748_at) / RFU TMPRSS4 (11747572_a_at) / Fold change /veh TMPRSS4 (11747572_a_at) / RFU HAMP (11756126_x_at) / Fold change /veh HAMP (11756126_x_at) / RFU RNFT2 (11725882_a_at) / Fold change /veh RNFT2 (11725882_a_at) / RFU NR4A2 (11747474_a_at) / Fold change /veh NR4A2 (11747474_a_at) / RFU ABCC12 (11746883_a_at) / Fold change /veh ABCC12 (11746883_a_at) / RFU TMEM136 (11760407_x_at) / Fold change /veh TMEM136 (11760407_x_at) / RFU CLDN22 /// WWC2 (11732394_at) / Fold change /veh CLDN22 /// WWC2 (11732394_at) / RFU HLA-DPB1 (11760878_x_at) / Fold change /veh HLA-DPB1 (11760878_x_at) / RFU SPINT1 (11716480_a_at) / Fold change /veh SPINT1 (11716480_a_at) / RFU GAP43 (11754022_s_at) / Fold change /veh GAP43 (11754022_s_at) / RFU A4GNT (11735810_at) / Fold change /veh A4GNT (11735810_at) / RFU PRB3 (11715151_x_at) / Fold change /veh PRB3 (11715151_x_at) / RFU TUBB4B (11761932_at) / Fold change /veh TUBB4B (11761932_at) / RFU CAPN14 (11732068_a_at) / Fold change /veh CAPN14 (11732068_a_at) / RFU TMCC2 (11721928_a_at) / Fold change /veh TMCC2 (11721928_a_at) / RFU IRGQ (11745062_a_at) / Fold change /veh IRGQ (11745062_a_at) / RFU FAM174B (11720279_a_at) / Fold change /veh FAM174B (11720279_a_at) / RFU TMPRSS4 (11748680_a_at) / Fold change /veh TMPRSS4 (11748680_a_at) / RFU FAM212B (11763350_a_at) / Fold change /veh FAM212B (11763350_a_at) / RFU PLEKHG5 (11743358_a_at) / Fold change /veh PLEKHG5 (11743358_a_at) / RFU ZSCAN30 (11745921_a_at) / Fold change /veh ZSCAN30 (11745921_a_at) / RFU CMKLR1 (11741424_a_at) / Fold change /veh CMKLR1 (11741424_a_at) / RFU LOC101060620 /// MAPK8IP1 (11723275_at) / Fold change /veh LOC101060620 /// MAPK8IP1 (11723275_at) / RFU SPTSSB (11747773_x_at) / Fold change /veh SPTSSB (11747773_x_at) / RFU PRSS12 (11739890_at) / Fold change /veh PRSS12 (11739890_at) / RFU BIN1 (11741810_x_at) / Fold change /veh BIN1 (11741810_x_at) / RFU WNT11 (11732464_a_at) / Fold change /veh WNT11 (11732464_a_at) / RFU C10orf10 (11716521_a_at) / Fold change /veh C10orf10 (11716521_a_at) / RFU C5orf56 (11738089_at) / Fold change /veh C5orf56 (11738089_at) / RFU CYB561 (11721691_x_at) / Fold change /veh CYB561 (11721691_x_at) / RFU ANKRD19P (11752326_a_at) / Fold change /veh ANKRD19P (11752326_a_at) / RFU OR2T12 /// OR2T33 /// OR2T8 (11738714_s_at) / Fold change /veh OR2T12 /// OR2T33 /// OR2T8 (11738714_s_at) / RFU VCAN (11748164_a_at) / Fold change /veh VCAN (11748164_a_at) / RFU JSRP1 (11732532_at) / Fold change /veh JSRP1 (11732532_at) / RFU KRTAP10-11 (11738290_x_at) / Fold change /veh KRTAP10-11 (11738290_x_at) / RFU MYO3A (11730013_a_at) / Fold change /veh MYO3A (11730013_a_at) / RFU EBF3 (11725865_a_at) / Fold change /veh EBF3 (11725865_a_at) / RFU CAMK2N1 (11719241_x_at) / Fold change /veh CAMK2N1 (11719241_x_at) / RFU C5orf56 (11738088_a_at) / Fold change /veh C5orf56 (11738088_a_at) / RFU OLFML3 (11715873_a_at) / Fold change /veh OLFML3 (11715873_a_at) / RFU LOC100653217 /// NTM (11731650_a_at) / Fold change /veh LOC100653217 /// NTM (11731650_a_at) / RFU MAPK11 (11762145_a_at) / Fold change /veh MAPK11 (11762145_a_at) / RFU FIZ1 (11724087_x_at) / Fold change /veh FIZ1 (11724087_x_at) / RFU OASL (11726364_x_at) / Fold change /veh OASL (11726364_x_at) / RFU SOX15 (11748057_x_at) / Fold change /veh SOX15 (11748057_x_at) / RFU CD79A (11719716_a_at) / Fold change /veh CD79A (11719716_a_at) / RFU HIST1H1D (11736915_at) / Fold change /veh HIST1H1D (11736915_at) / RFU CASKIN2 (11723855_a_at) / Fold change /veh CASKIN2 (11723855_a_at) / RFU LOC730098 (11760151_x_at) / Fold change /veh LOC730098 (11760151_x_at) / RFU OR4N2 (11742367_at) / Fold change /veh OR4N2 (11742367_at) / RFU PRRT2 (11749266_a_at) / Fold change /veh PRRT2 (11749266_a_at) / RFU SNX32 (11753110_a_at) / Fold change /veh SNX32 (11753110_a_at) / RFU CDHR5 (11726645_a_at) / Fold change /veh CDHR5 (11726645_a_at) / RFU RCAN1 (11760418_a_at) / Fold change /veh RCAN1 (11760418_a_at) / RFU FAM167A (11723789_a_at) / Fold change /veh FAM167A (11723789_a_at) / RFU FAM26E (11764081_at) / Fold change /veh FAM26E (11764081_at) / RFU ISYNA1 (11749810_s_at) / Fold change /veh ISYNA1 (11749810_s_at) / RFU ACY1 (11761880_at) / Fold change /veh ACY1 (11761880_at) / RFU 11764098_at / Fold change /veh 11764098_at / RFU SAMD14 (11745864_x_at) / Fold change /veh SAMD14 (11745864_x_at) / RFU NPB (11741838_a_at) / Fold change /veh NPB (11741838_a_at) / RFU TMPRSS6 (11731388_a_at) / Fold change /veh TMPRSS6 (11731388_a_at) / RFU KRTAP10-2 (11738614_at) / Fold change /veh KRTAP10-2 (11738614_at) / RFU ARHGAP8 /// PRR5-ARHGAP8 (11727945_x_at) / Fold change /veh ARHGAP8 /// PRR5-ARHGAP8 (11727945_x_at) / RFU KRTAP5-7 /// NADSYN1 (11734609_at) / Fold change /veh KRTAP5-7 /// NADSYN1 (11734609_at) / RFU RASL12 (11751679_a_at) / Fold change /veh RASL12 (11751679_a_at) / RFU CDKN2B (11736163_a_at) / Fold change /veh CDKN2B (11736163_a_at) / RFU PRF1 (11729649_at) / Fold change /veh PRF1 (11729649_at) / RFU, ZNF638 /// ZNF638-IT1 / Fold change vs veh, ZNF638 /// ZNF638-IT1 / RFU, PANK3 / Fold change vs veh, PANK3 / RFU, SH3YL1 / Fold change vs veh, SH3YL1 / RFU, ZEB2 / Fold change vs veh, ZEB2 / RFU, NRIP1 / Fold change vs veh, NRIP1 / RFU, PTTG1IP / Fold change vs veh, PTTG1IP / RFU, CAPN2 / Fold change vs veh, CAPN2 / RFU, MED14 / Fold change vs veh, MED14 / RFU, SNORA58 / Fold change vs veh, SNORA58 / RFU, C1orf63 / Fold change vs veh, C1orf63 / RFU, LRRFIP1 / Fold change vs veh, LRRFIP1 / RFU, NDUFAF7 / Fold change vs veh, NDUFAF7 / RFU, SLC12A2 / Fold change vs veh, SLC12A2 / RFU, IBTK / Fold change vs veh, IBTK / RFU, ESF1 / Fold change vs veh, ESF1 / Fold change vs veh, TMEM50B / RFU, TAOK1 / Fold change vs veh, TAOK1 / RFU, ACBD3 / Fold change vs veh, ACBD3 / RFU, TMA16 / Fold change vs veh, TMA16 / RFU, RWDD3 / Fold change vs veh, RWDD3 / RFU, BCAT1 / Fold change vs veh, BCAT1 / RFU, EDEM3 / Fold change vs veh, EDEM3 / RFU, TMEM33 / Fold change vs veh, TMEM33 / RFU, WDR75 / Fold change vs veh, WDR75 / RFU, AHCTF1 / Fold change vs veh, AHCTF1 / RFU, TFRC / Fold change vs veh, TFRC / RFU, ZDHHC17 / Fold change vs veh, ZDHHC17 / RFU, NOM1 / Fold change vs veh, NOM1 / RFU, ARL8B / Fold change vs veh, ARL8B / RFU, ZBTB11 / Fold change vs veh, ZBTB11 / RFU, TAMM41 / Fold change vs veh, TAMM41 / RFU, KIAA1704 /// LOC100996395 / Fold change vs veh, KIAA1704 /// LOC100996395 / RFU, ING1 / Fold change vs veh, ING1 / RFU, TRMT61B / Fold change vs veh, TRMT61B / RFU, FUBP3 / Fold change vs veh, FUBP3 / RFU, TP53 / Fold change vs veh, TP53 / RFU, TNKS2 / Fold change vs veh, TNKS2 / RFU, ZFP14 / Fold change vs veh, ZFP14 / RFU, ACTR2 / Fold change vs veh, ACTR2 / RFU, PPP3R1 / Fold change vs veh, PPP3R1 / RFU, PIK3R1 / Fold change vs veh, PIK3R1 / RFU, HNRNPA1 / Fold change vs veh, HNRNPA1 / RFU, RNF170 / Fold change vs veh, RNF170 / RFU, ZNF28 / Fold change vs veh, ZNF28 / RFU, RNGTT / Fold change vs veh, RNGTT / RFU, OGT / Fold change vs veh, OGT / RFU, BRD1 / Fold change vs veh, BRD1 / RFU, MARS / Fold change vs veh, MARS / RFU, ZNF655 / Fold change vs veh, ZNF655 / RFU, FAHD1 / Fold change vs veh, FAHD1 / RFU, BDP1 / Fold change vs veh, BDP1 / RFU, LRRCC1 / Fold change vs veh, LRRCC1 / RFU, ARID1A / Fold change vs veh, ARID1A / RFU, ZNF146 / Fold change vs veh, ZNF146 / RFU, ZNF330 / Fold change vs veh, ZNF330 / RFU, GPN3 / Fold change vs veh, GPN3 / RFU, C9orf123 / Fold change vs veh, C9orf123 / RFU, N4BP2L2 / Fold change vs veh, N4BP2L2 / RFU, ARFIP1 / Fold change vs veh, ARFIP1 / RFU, FAM179B / Fold change vs veh, FAM179B / RFU, BCL10 / Fold change vs veh, BCL10 / RFU, UHRF1BP1L / Fold change vs veh, UHRF1BP1L / RFU, BET1 / Fold change vs veh, BET1 / RFU, CNOT2 / Fold change vs veh, CNOT2 / RFU, ZNF268 / Fold change vs veh, ZNF268 / Fold change vs veh, ZNF507 / RFU, DGCR2 / Fold change vs veh, DGCR2 / RFU, WDSUB1 / Fold change vs veh, WDSUB1 / Fold change vs veh, HSP90B1 /// MIR3652 / RFU, ADSS / Fold change vs veh, ADSS / RFU, GK / Fold change vs veh, GK / RFU, ZNF148 / Fold change vs veh, ZNF148 / RFU, TAF9 / Fold change vs veh, TAF9 / RFU, SLC1A5 / Fold change vs veh, SLC1A5 / RFU, SLMO2 / Fold change vs veh, SLMO2 / RFU, ABCC4 / Fold change vs veh, ABCC4 / RFU, LOC101060439 /// RAP1B / Fold change vs veh, LOC101060439 /// RAP1B / RFU, RFX7 / Fold change vs veh, RFX7 / RFU, GTPBP10 / Fold change vs veh, GTPBP10 / RFU, CNEP1R1 / Fold change vs veh, CNEP1R1 / RFU, BIVM-ERCC5 /// ERCC5 / Fold change vs veh, BIVM-ERCC5 /// ERCC5 / RFU, ILF3 / Fold change vs veh, ILF3 / RFU 11762660_at / Fold change /veh 11762660_at / RFU VCAN (11757783_s_at) / Fold change /veh VCAN (11757783_s_at) / RFU DDX43 (11728927_at) / Fold change /veh DDX43 (11728927_at) / RFU KRT8 (11758188_x_at) / Fold change /veh KRT8 (11758188_x_at) / RFU NKD1 (11759106_at) / Fold change /veh NKD1 (11759106_at) / RFU SRD5A1 (11742802_a_at) / Fold change /veh SRD5A1 (11742802_a_at) / RFU TPSAB1 /// TPSB2 (11721975_s_at) / Fold change /veh TPSAB1 /// TPSB2 (11721975_s_at) / RFU GSTM3 (11746129_a_at) / Fold change /veh GSTM3 (11746129_a_at) / RFU IL23R (11737362_x_at) / Fold change /veh IL23R (11737362_x_at) / RFU TMEM51 (11727254_a_at) / Fold change /veh TMEM51 (11727254_a_at) / RFU PIWIL2 (11732686_x_at) / Fold change /veh PIWIL2 (11732686_x_at) / RFU ORM1 (11744905_x_at) / Fold change /veh ORM1 (11744905_x_at) / RFU CCDC152 (11743942_at) / Fold change /veh CCDC152 (11743942_at) / RFU ECM1 (11717891_a_at) / Fold change /veh ECM1 (11717891_a_at) / RFU IL23R (11748794_a_at) / Fold change /veh IL23R (11748794_a_at) / RFU TNFAIP8L3 (11732012_x_at) / Fold change /veh TNFAIP8L3 (11732012_x_at) / RFU MBOAT4 (11741988_at) / Fold change /veh MBOAT4 (11741988_at) / RFU 11764193_at / Fold change /veh 11764193_at / RFU TMEM53 (11763286_at) / Fold change /veh TMEM53 (11763286_at) / RFU MAGEB2 (11727129_at) / Fold change /veh MAGEB2 (11727129_at) / RFU TMEM200A (11744735_a_at) / Fold change /veh TMEM200A (11744735_a_at) / RFU CCDC152 (11751479_a_at) / Fold change /veh CCDC152 (11751479_a_at) / RFU FAM211A (11726209_a_at) / Fold change /veh FAM211A (11726209_a_at) / RFU RGS16 (11746705_a_at) / Fold change /veh RGS16 (11746705_a_at) / RFU VCAN (11755009_s_at) / Fold change /veh VCAN (11755009_s_at) / RFU RHOB (11743442_s_at) / Fold change /veh RHOB (11743442_s_at) / RFU RGS16 (11720943_a_at) / Fold change /veh RGS16 (11720943_a_at) / RFU RGS16 (11720944_at) / Fold change /veh RGS16 (11720944_at) / RFU, VPS4B / Fold change vs veh, VPS4B / RFU, CREB1 / Fold change vs veh, CREB1 / RFU, DNAJC13 / Fold change vs veh, DNAJC13 / RFU, GNAQ / Fold change vs veh, GNAQ / RFU, CDK5R1 / Fold change vs veh, CDK5R1 / RFU, ZRANB3 / Fold change vs veh, ZRANB3 / RFU, CUL4A / Fold change vs veh, CUL4A / RFU, CCNY / Fold change vs veh, CCNY / RFU, UFL1 / Fold change vs veh, UFL1 / RFU, COG3 / Fold change vs veh, COG3 / RFU, DIAPH2 / Fold change vs veh, DIAPH2 / RFU, SKA2 / Fold change vs veh, SKA2 / RFU, AFF3 / Fold change vs veh, AFF3 / RFU, LMF1 / Fold change vs veh, LMF1 / RFU, IPO11 / Fold change vs veh, IPO11 / RFU, DFFB / Fold change vs veh, DFFB / RFU, FOXP1 / Fold change vs veh, FOXP1 / RFU, CARD8 / Fold change vs veh, CARD8 / RFU, STRN3 / Fold change vs veh, STRN3 / RFU, ADK / Fold change vs veh, ADK / RFU, RASSF2 / Fold change vs veh, RASSF2 / RFU, WIPF1 / Fold change vs veh, WIPF1 / RFU, LARP1B / Fold change vs veh, LARP1B / RFU, RASA1 / Fold change vs veh, RASA1 / RFU, RB1 / Fold change vs veh, RB1 / RFU, PPFIA1 / Fold change vs veh, PPFIA1 / RFU, MAT2A / Fold change vs veh, MAT2A / RFU, CCT5 / Fold change vs veh, CCT5 / RFU, WDR92 / Fold change vs veh, WDR92 / RFU, CUX1 / Fold change vs veh, CUX1 / RFU, TTC7A / Fold change vs veh, TTC7A / RFU, TMEM135 / Fold change vs veh, TMEM135 / RFU, DEPTOR / Fold change vs veh, DEPTOR / RFU, CPM / Fold change vs veh, CPM / RFU, DNAJB6 / Fold change vs veh, DNAJB6 / RFU, CACNA2D3 / Fold change vs veh, CACNA2D3 / RFU, DTX4 / Fold change vs veh, DTX4 / RFU, TFCP2 / Fold change vs veh, TFCP2 / RFU, GMCL1 /// GMCL1P1 / Fold change vs veh, GMCL1 /// GMCL1P1 / RFU, AEBP2 / Fold change vs veh, AEBP2 / RFU, SNHG1 /// SNORD22 /// SNORD25 /// SNORD26 /// SNORD27 /// SNORD28 /// SNORD29 /// SNORD31 / Fold change vs veh, SNHG1 /// SNORD22 /// SNORD25 /// SNORD26 /// SNORD27 /// SNORD28 /// SNORD29 /// SNORD31 / Fold change (Aza/veh), C12orf56 (ProbeSet 11735607_a_at) / Fold change (ACY-1035/veh), C12orf56 (ProbeSet 11735607_a_at) / Fold change (Aza/veh), FGFR1OP (ProbeSet 11751329_s_at) / Fold change (ACY-1035/veh), FGFR1OP (ProbeSet 11751329_s_at) / Fold change (Aza/veh), VPS36 (ProbeSet 11739960_a_at) / Fold change (ACY-1035/veh), VPS36 (ProbeSet 11739960_a_at) / RFU SYPL1 (11715823_x_at) / Fold change /veh SYPL1 (11715823_x_at) / RFU IGFBP7 (11715501_s_at) / Fold change /veh IGFBP7 (11715501_s_at) / RFU REEP3 (11722064_at) / Fold change /veh REEP3 (11722064_at) / RFU IGLL1 (11728026_x_at) / Fold change /veh IGLL1 (11728026_x_at): dose or concentration left out as unconfirmed. It is filed as cell-based, human. The conditions noted are these: MV-4-11 cells, 48 hours.

Consider `Nc1ccc(-c2cccs2)cc1NC(=O)c1ccc2c(c1)cc(C1CC1)n2CCN1CCOCC1` [ACY-1035], for which the “Fold change /veh CLDN22 /// WWC2 (11732394_at)” value worked out at 1.04.
